Data from publication PMC3634466, “Cantharidin Impedes Activity of Glutathione S-Transferase in the Midgut of Helicoverpa armigera Hübner” (International Journal of Molecular Sciences, 2013).

Experiments:
[1] = target: T1, HaGST (recombinant rHaGST, delta-class glutathione S-transferase; GenBank EF033109 / ABK40535) (Helicoverpa armigera, UniProt A0MSN0)
T1 sequence (A0MSN0 1-220): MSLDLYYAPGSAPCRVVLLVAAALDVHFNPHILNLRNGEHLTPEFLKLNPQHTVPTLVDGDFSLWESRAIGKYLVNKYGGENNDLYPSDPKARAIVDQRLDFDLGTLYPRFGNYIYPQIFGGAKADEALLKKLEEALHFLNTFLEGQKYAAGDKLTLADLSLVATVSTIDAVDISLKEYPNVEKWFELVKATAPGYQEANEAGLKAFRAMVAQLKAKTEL

[2] = target: T1, HaGST (recombinant rHaGST, delta-class glutathione S-transferase; GenBank EF033109 / ABK40535); test: GSH/CDNB conjugation assay at […] nm with purified rHaGST; Lineweaver-Burk plot; format: biochemical; parameters: His-tagged full-length rHaGST expressed from pET-28a in E. coli BL-21 (DE-3), Ni-NTA purified; 220 residues

SMILES	enzyme kinetics of purified rHaGST with variable GSH (Lineweaver-Burk), CDNB as [1]	IC50 [2]
N[C@@H](CCC(=O)N[C@@H](CS)C(=O)NCC(=O)O)C(=O)O [GSH, glutathione]	the rHaGST activity was calculated under different concentrations of GSH	–
C[C@@]12C(=O)OC(=O)[C@]1(C)[C@H]1CC[C@@H]2O1 [cantharidin]	–	12.5 µM
